Results published in patent US20190241569A1, “3-(ARYL OR HETEROARYL) METHYLENEINDOLIN-2-ONE DERIVATIVES AS INHIBITORS OF CANCER STEM CELL PATHWAY KINASES FOR THE TREATMENT OF CANCER” (Boston Biomedical, Inc., priority 2013, published 2019).

Columns and labels:
Format in all cases: cell-based
FaDu CSC = assay: Cancer stem cells, Cell Titer-Glo 72 hours (Test Example 3); settings: Homo sapiens, FaDu, 72 h
A549 = assay: Bulk cancer cells, Cell Titer-Glo 72 hours (Test Example 2); settings: Homo sapiens
Method: (§1) Tubes of 3× drug (60 uM in 500 uL complete media) were prepared from 5 mM stock solutions in DMSO. […] To treat cells, 50 uL of drug from the dilution plate was removed and added to the cell plates. […] Cells were harvested 72 hours after drug addition using Cell Titer-Glo (Promega) and luminescence measured on a plate reader.

FaDu = assay: as above; settings: Homo sapiens
Method: as §1

ACHN = assay: as above; settings: Homo sapiens, ACHN, 72 h
Method: as §1

Row | Compound | IC50 (FaDu CSC) | IC50 (A549) | IC50 (FaDu) | IC50 (ACHN)
1 | Cc1[nH]c(/C=C2\C(=O)Nc3ccc(-c4cnn(-c5ccccc5)c4C)cc32)c(C)c1C(=O)N1CCN(C)CC1 [Example 5] | 14.8 µM |  |  | 
2 | O=C1Nc2ccc(-c3csc(-c4ccccc4)n3)cc2/C1=C/c1ccc(N2CCNCC2)cc1 [Example 171] |  | 5.79 µM | 2.59 µM | 
3 | O=C1Nc2ccc(-c3csc(-c4ccccc4)n3)cc2/C1=C/c1[nH]c(C(=O)O)c2c1CCCC2 [Example 163] | 4.49 µM |  |  | 24.9 µM
4 | CCN(CC)CCNC(=O)c1c(C)[nH]c(/C=C2\C(=O)Nc3ccc(-n4cc(-c5ccccc5)nn4)cc32)c1C [Example 49] | 3 µM |  | 6.58 µM | 7.16 µM
5 | Cc1[nH]c(/C=C2\C(=O)Nc3ccc(-c4cnn(-c5ccccc5)c4C)cc32)c(C)c1C(=O)NCCN1CCCC1 [Example 28] | 1.31 µM |  | 5.79 µM | 
6 | CCN(CC)CCNC(=O)c1c(C)[nH]c(/C=C2\C(=O)Nc3ccc(-c4nnc(-c5ccccc5)o4)cc32)c1C [Example 53] | 21.5 µM |  | 8.23 µM | 
7 | CCN(CC)CCNC(=O)c1[nH]c(/C=C2\C(=O)Nc3ccc(-c4csc(-c5ccccc5)n4)cc32)c2c1CCCC2 [Example 166] |  |  |  | 9.91 µM
8 | Cc1[nH]c(/C=C2\C(=O)Nc3ccc(-c4ccnn4-c4ccccc4)cc32)c(C)c1C(=O)N1CCN(C)CC1 [Example 23] | 11.5 µM |  | 4.55 µM | 
9 | CCN(CC)CCNC(=O)c1c(C)[nH]c(/C=C2\C(=O)Nc3ccc(-c4oc(-c5ccccc5)nc4C)cc32)c1C [Example 34] | 18.2 µM |  |  | 
10 | CCN(CC)CCNC(=O)c1c(C)[nH]c(/C=C2\C(=O)Nc3ccc(-c4ccnn4-c4ccc(C#N)cc4)cc32)c1C [Example 25] | 4.96 µM |  | 17.3 µM | 
11 | Cc1cc(C)c(/C=C2\C(=O)Nc3ccc(-c4ccc(C(=O)c5ccccc5)cc4)cc32)[nH]1 [Example 260] |  |  | 22.4 µM | 21.8 µM
12 | CCN(CC)CCNC(=O)c1c(C)[nH]c(/C=C2\C(=O)Nc3ccc(-c4csc(-c5ccccn5)n4)cc32)c1C [Example 124] |  |  | 46.9 µM | 
13 | Cc1cc(C)c(/C=C2\C(=O)Nc3cc(-c4cccc(C#N)c4C)ccc32)[nH]1 [Example 245] | 39.1 µM |  |  | 
14 | O=C1Nc2ccc(-c3csc(-c4ccncc4)n3)cc2/C1=C/c1ccc(N2CCNCC2)cc1 [Example 170] |  | 8.73 µM | 25.2 µM | 
15 | CCOC(=O)CCc1cccc(-c2nc(-c3ccc4c(c3)/C(=C/c3[nH]c(C)c(C(=O)NCCN(CC)CC)c3C)C(=O)N4)cs2)c1 [Example 134] | 2.34 µM |  |  | 
16 | Cc1[nH]c(/C=C2\C(=O)Nc3ncc(-c4csc(-c5ccccc5)n4)cc32)c(C)c1C(=O)N1CCN(C)CC1 [Example 117] |  |  | 39.2 µM | 
17 | COc1ccc(-c2ccc3c(c2)/C(=C/c2[nH]c(C)cc2C)C(=O)N3)c(C)c1 [Example 263] |  |  | 19.8 µM | 24.8 µM
18 | Cc1cc(C)c(/C=C2\C(=O)Nc3cc(-c4cnc5ccccn45)ccc32)[nH]1 [Example 247] |  |  | 19.4 µM | 20.6 µM
19 | CCN(CC)CCNC(=O)c1c(C)[nH]c(/C=C2\C(=O)Nc3ccc(-c4cnc(-c5ccccc5)s4)cc32)c1C [Example 54] |  |  | 23.7 µM | 
20 | O=C1Nc2ccc(-c3csc(-c4ccccc4)n3)cc2/C1=C/c1cc2ccccc2[nH]1 [Example 159] |  |  | 49.3 µM | 

Row | Compound | IC50 (FaDu CSC) | IC50 (A549) | IC50 (FaDu) | IC50 (ACHN)
21 | COc1ccc(-c2ccc3c(c2)/C(=C/c2[nH]c(C)cc2C)C(=O)N3)nc1 [Example 227] |  | 0.07 µM |  | 
22 | CCN(CC)CCNC(=O)c1c(C)[nH]c(/C=C2\C(=O)Nc3ccc(-c4csc(-c5ccc(Br)cc5)n4)cc32)c1C [Example 125] | 1.33 µM |  | 3.68 µM | 
23 | Cc1cc(C)c(/C=C2\C(=O)Nc3ccc(-c4ccc(C=O)cc4)cc32)[nH]1 [Example 262] |  | 29.2 µM | 26.8 µM | 
24 | CCN(CC)CCNC(=O)c1c(C)[nH]c(/C=C2\C(=O)Nc3cc(-c4ccc5cn[nH]c(=O)c5c4)ccc32)c1C [Example 252] |  |  | 23.9 µM | 
25 | Cc1[nH]c(/C=C2\C(=O)Nc3ccc(-c4ccnn4-c4ccc(C#N)cc4)cc32)c(C)c1C(=O)N1CCN(C)CC1 [Example 24] | 48.2 µM |  |  | 
26 | Cc1[nH]c(/C=C2\C(=O)Nc3ccc(-c4cnn(-c5ccccc5)c4C)cc32)c(C)c1C(=O)N1CCOCC1 [Example 13] | 37.2 µM |  | 6.76 µM | 
27 | Cc1cc(C)c(/C=C2\C(=O)Nc3cc(-c4ccc5ccccc5n4)ccc32)[nH]1 [Example 248] |  |  | 14 µM | 
28 | O=C1Nc2ccc(-c3csc(-c4ccncc4)n3)cc2/C1=C/c1ccc(N2CCOCC2)cc1 [Example 173] |  |  | 17.5 µM | 
29 | CCN(CC)CCN1CCCc2[nH]c(/C=C3\C(=O)Nc4ccc(-c5csc(-c6ccccc6)n5)cc43)c(C)c2C1=O [Example 176] |  | 18 µM | 5.31 µM | 
30 | CCN(CC)CCNC(=O)c1c(C)[nH]c(/C=C2\C(=O)Nc3ncc(-c4csc(-c5ccccc5)n4)cc32)c1C [Example 116] | 1.6 µM |  |  | 
31 | CCN(CC)CCNC(=O)c1c(C)[nH]c(/C=C2\C(=O)Nc3cnc(-c4csc(-c5ccccc5)n4)cc32)c1C [Example 120] | 4.75 µM |  | 11.2 µM | 
32 | CCN(CC)CCNC(=O)c1c(C)[nH]c(/C=C2\C(=O)Nc3ccc(-c4cnc(-c5ccccc5)[nH]4)cc32)c1C [Example 41] |  |  | 5.34 µM | 20.6 µM
33 | CCN(CC)CCNC(=O)c1c(C)[nH]c(/C=C2\C(=O)Nc3ccc(-c4cnc(-c5ccccc5)o4)cc32)c1C [Example 17] | 41.5 µM |  | 9.73 µM | 12.2 µM
34 | Cc1[nH]c(/C=C2\C(=O)Nc3ccc(-c4csc(C5CCNCC5)n4)cc32)c(C)c1C(=O)O [Example 142] | 5.62 µM |  |  | 
35 | Cc1cc(C)c(/C=C2\C(=O)Nc3ccc(-c4nccc5ccccc45)cc32)[nH]1 [Example 219] |  | 18.4 µM | 23.5 µM | 
36 | Cc1[nH]c(/C=C2\C(=O)Nc3ccc(-c4ccc(-c5ccccc5)s4)cc32)c(C)c1C(=O)NCCN1CCCC1 [Example 14] | 1.64 µM |  | 4.44 µM | 
37 | CCN(CC)CCNC(=O)c1c(C)[nH]c(/C=C2\C(=O)Nc3ccc(C4CCN(C5CCOCC5)CC4)cc32)c1C [Example 12] |  |  | 23.9 µM | 
38 | CC(=O)N1CCC(N2CCC(c3ccc4c(c3)/C(=C/c3[nH]c(C)c(C(=O)N5CCN(C)CC5)c3C)C(=O)N4)CC2)CC1 [Example 46] | 15.6 µM |  | 23.2 µM | 
39 | O=C1Nc2ccc(-c3csc(-c4ccncc4)n3)cc2/C1=C/c1cc2ccccc2[nH]1 [Example 158] | 3.07 µM |  |  | 
40 | Cc1cc(C)c(/C=C2\C(=O)Nc3ccc(-c4csc(-c5ccccc5)n4)cc32)[nH]1 [Example 138] | 6.49 µM |  | 7.87 µM | 5.31 µM

Row | Compound | IC50 (FaDu CSC) | IC50 (A549) | IC50 (FaDu) | IC50 (ACHN)
41 | Cc1[nH]c(/C=C2\C(=O)Nc3ccc(-c4cnn(-c5ccccn5)c4)cc32)c(C)c1C(=O)N1CCOCC1 [Example 30] | 8.94 µM |  |  | 
42 | CCOC(=O)CCc1ccc(-c2nc(-c3ccc4c(c3)/C(=C/c3[nH]c(C)c(C(=O)NCCN(CC)CC)c3C)C(=O)N4)cs2)cc1 [Example 136] | 2.52 µM |  |  | 
43 | Cc1[nH]c(/C=C2\C(=O)Nc3ccc(-c4ncc(-c5ccccc5)o4)cc32)c(C)c1C(=O)N1CCN(C)CC1 [Example 20] | 2.38 µM |  |  | 
44 | Cc1[nH]c(/C=C2\C(=O)Nc3ccc(-c4cnc(-c5ccccc5)o4)cc32)c(C)c1C(=O)N1CCN(C)CC1 [Example 18] | 9.35 µM |  | 12.1 µM | 
45 | O=C1Nc2ccc(-c3csc(-c4ccccc4)n3)cc2/C1=C/c1ccc(N2CCOCC2)cc1 [Example 172] |  |  | 35.5 µM | 
46 | CN1CCN(C(=O)c2ccc(/C=C3\C(=O)Nc4ccc(-c5csc(-c6ccccc6)n5)cc43)[nH]c2=O)CC1 [Example 122] | 23.2 µM |  |  | 
47 | CCN(CC)CCNC(=O)c1c(C)[nH]c(/C=C2\C(=O)Nc3ccc(-c4csc(-c5cccc(Br)c5)n4)cc32)c1C [Example 127] | 7.82 µM |  | 24.8 µM | 
48 | Cc1ccc(-c2nc(-c3ccc4c(c3)/C(=C/c3[nH]c(C)c(C(=O)N5CCOCC5)c3C)C(=O)N4)cs2)cc1 [Example 105] |  |  | 3.05 µM | 
49 | CCN(CC)CCNC(=O)c1c(C)[nH]c(/C=C2\C(=O)Nc3ccc(C4CCN(c5ccccc5)CC4)cc32)c1C [Example 42] | 1.3 µM | 16 µM | 1.89 µM | 
50 | Cc1cc(C)c(/C=C2\C(=O)Nc3ccc(-c4ccc5ccccc5n4)cc32)[nH]1 [Example 214] |  |  |  | 7.44 µM
51 | CCN(CC)CCNC(=O)c1c(C)[nH]c(/C=C2\C(=O)Nc3ccc(-c4cs/c(=N\c5ccccc5)n4C)cc32)c1C [Example 132] | 2.17 µM |  | 5.35 µM | 
52 | Cc1cc(C)c(/C=C2\C(=O)Nc3cc(-c4cnc5ccnn5c4)ccc32)[nH]1 [Example 243] | 14.9 µM |  |  | 
53 | Cc1[nH]c(/C=C2\C(=O)Nc3ccc(-c4csc(-c5ccncc5)n4)cc32)c(C)c1CCC(=O)O [Example 154] |  |  |  | 14.6 µM
54 | Cc1cc(C)c(/C=C2\C(=O)Nc3cc(-c4ccc(-c5ccccc5)nc4)ccc32)[nH]1 [Example 241] | 18.2 µM |  |  | 
55 | Cc1[nH]c(/C=C2\C(=O)Nc3ccc(-c4cnc(-c5ccccc5)[nH]4)cc32)c(C)c1C(=O)N1CCN(C)CC1 [Example 44] | 13.2 µM |  | 5.54 µM | 
56 | COc1cccnc1-c1ccc2c(c1)/C(=C/c1[nH]c(C)cc1C)C(=O)N2 [Example 222] |  |  | 33.2 µM | 
57 | CCN(CC)CCNC(=O)c1c(C)[nH]c(/C=C2\C(=O)Nc3ccc(-c4nc(-c5ccccc5)n[nH]4)cc32)c1C [Example 50] | 2.8 µM |  | 6.16 µM | 
58 | O=C1Nc2ccc(-c3csc(-c4ccccc4)n3)cc2/C1=C/c1ccc(C(=O)NCCN2CCOCC2)c(=O)[nH]1 [Example 123] | 33.7 µM |  |  | 
59 | CCN(CC)CCNC(=O)c1c(C)[nH]c(/C=C2\C(=O)Nc3ccc(C4CCN(c5ncccn5)CC4)cc32)c1C [Example 43] | 18.8 µM |  | 6.47 µM | 
60 | CCOC(=O)c1c(C)[nH]c(/C=C2\C(=O)Nc3ccc(-c4csc(-c5ccccc5)n4)cc32)c1C [Example 108] | 20.2 µM |  |  | 
